How the values were obtained:
[1] = test system: mite allergen; experiment: Mite allergen inactivation in mite extract, detected with DaniScan; type: biochemical
[2] = test system: M13 phage; experiment: Inactivation test of M13 phage in solution (plaque count on E. coli JM109); type: cell-based; conditions: 9 M urea, 1 hour
Experimental: This solution was added in the 1.5 mL volume tube to prepare a protease treatment solution. […] This solution was added in the 1.5 mL volume tube to prepare an urea treatment solution. […] This solution was added in the 1.5 mL volume tube to prepare an urea/protease treatment solution. Each solution was incubated at 37° C. for 1 hour. After the incubation, 600 μL of PEG solution (20% PEG6000, 2.5M NaCl) was added, and the solution was allowed to stand in ice for 3 hours. […] After incubating the medium at 37° C. for 5 hours, the number of the plaques appeared was counted to determine pfu. […] Into this solution in the 1.5 mL volume tube, 0, 0.08, 0.8 and 8 μL each of pfu protease (manufactured by Takara Bio Co.) solution was added. […] Into this solution in the 1.5 mL volume tube, 0, 0.08, 0.8 and 8 μL each of pfu protease (manufactured by Takara Bio Co.) solution was added. […] Each treatment solution was incubated at 37° C. for 1 hour. After the incubation, 600 μL of PEG solution (20% PEG6000, 2.5M NaCl) was added, and the solution was allowed to stand in ice for 3 hours. […] After incubating the medium at 37° C. for 5 hours, the number of the plaques appeared was counted to determine pfu. […] After the incubation, 600 μL of PEG solution (20% PEG, 2.5M NaCl) was added, and the solution was allowed to stand in ice for 3 hours. […] After incubating the medium at 37° C. for 5 hours, the number of the plaques appeared was counted to determine pfu for evaluating the infection ability. The inactivation ratio of M13 phage was calculated from the results in Table 10, and is shown in the graph in FIG.

[3] = test system: λ-phage; experiment: Inactivation test of λ-phage in solution (plaque count on E. coli XL1-Blue MRF′); type: cell-based
[4] = target: Cj-1 allergen (Cryptomeria japonica, UniProt P18632); experiment: Electrophoresis and Western blotting with Cj-1 antibody; type: biochemical, cedar; conditions: for denaturation of Cj-1 protein (Western band): 5 N HCl, 60° C., 60 minutes
[5] = target: cedar antigen Cryj-1 (Cryptomeria japonica, UniProt P18632); experiment: Electrophoresis of treated cedar antigen Cryj-1; type: biochemical; conditions: 10 μL 5 N HCL per 10 μL Cj-1 solution, 60° C., 60 minutes
[6] = test system: cedar extract; experiment: Electrophoresis of treated cedar extract (protein staining); type: biochemical
[7] = target: cedar antigen Cryj-2 (Cryptomeria japonica, UniProt P43212); experiment: Electrophoresis of treated cedar antigen Cryj-2; type: biochemical; conditions: 10 μL 5 N HCL per 10 μL Cj-2 solution, 60° C., 60 minutes
[8] = 37° C., 1 hour, pfu protease S final 2%, 9 M urea

Chain of Cj-1 allergen (P18632 22-374): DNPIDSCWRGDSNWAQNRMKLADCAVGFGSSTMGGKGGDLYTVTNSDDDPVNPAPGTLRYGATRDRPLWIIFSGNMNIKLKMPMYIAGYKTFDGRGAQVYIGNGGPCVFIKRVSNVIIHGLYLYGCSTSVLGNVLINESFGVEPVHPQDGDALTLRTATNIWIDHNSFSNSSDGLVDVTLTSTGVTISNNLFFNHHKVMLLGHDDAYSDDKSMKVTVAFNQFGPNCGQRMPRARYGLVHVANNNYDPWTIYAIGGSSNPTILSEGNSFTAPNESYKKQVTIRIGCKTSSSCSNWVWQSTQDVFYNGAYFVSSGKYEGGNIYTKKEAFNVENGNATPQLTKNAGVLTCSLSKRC
Chain of cedar antigen Cryj-1 (P18632 22-374): as above
Chain of cedar antigen Cryj-2 (P43212 46-433): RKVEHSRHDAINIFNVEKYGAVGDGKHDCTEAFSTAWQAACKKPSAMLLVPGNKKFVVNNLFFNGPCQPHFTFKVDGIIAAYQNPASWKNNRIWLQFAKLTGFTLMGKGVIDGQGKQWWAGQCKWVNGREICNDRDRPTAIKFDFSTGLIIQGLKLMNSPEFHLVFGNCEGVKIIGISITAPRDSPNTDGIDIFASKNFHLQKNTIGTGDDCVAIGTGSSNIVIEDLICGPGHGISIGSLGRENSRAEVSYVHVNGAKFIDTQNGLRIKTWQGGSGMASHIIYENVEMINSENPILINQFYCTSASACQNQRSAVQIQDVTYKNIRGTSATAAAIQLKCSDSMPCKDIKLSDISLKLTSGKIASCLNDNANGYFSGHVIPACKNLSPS

## [Na+].[OH-] [alkali, sodium hydroxide]
[1]; 2.5 M sodium hydroxide, 40° C. and 60° C., 10 minutes
  mite allergen inactivation (DaniScan band): inactivated

## NC(N)=O [Urea, urea]
[2]; 37° C.
  inactivation ratio of M13 phage: about 50%
[2]; protease concentration 0, 37° C.
  Infection ability of M13 phage: 6.3 × 10^9
[2]; 37° C., pfu protease S final 2%
  Infection ability of M13 phage: 1.1 × 10^10 pfu/mL
[3]; 3 M urea, 37° C., treatment time 0 min
  Infection ability of λ-phage: 9.4 × 10^7 pfu/ml
[3]; 3 M urea, 37° C., treatment time 15 min
  Infection ability of λ-phage: 1.5 × 10^8 pfu/ml
[3]; 3 M urea, 37° C., treatment time 60 min
  Infection ability of λ-phage: 1.1 × 10^8 pfu/ml
[3]; 3 M urea, irrespective of the treatment time
  inactivation of λ-phage (in words): not substantially inactivated
[3]; 9 M urea, 37° C., treatment time 0 min
  Infection ability of λ-phage: 4 × 10^6 pfu/ml
[3]; 9 M urea, 37° C., treatment time 0 min (Table 6)
  Infection ability of λ-phage by adding 9 M urea: 8.4 × 10^5 pfu/mL
[3]; 9 M urea, 37° C., treatment time 7.5 min
  Infection ability of λ-phage by adding 9 M urea: 0 pfu/mL
[3]; 9 M urea, 37° C., treatment time 15 min
  Infection ability of λ-phage: 0 pfu/ml
[3]; 9 M urea, 37° C., treatment time 15 min (Table 6)
  Infection ability of λ-phage by adding 9 M urea: 0 pfu/mL
[3]; 9 M urea, 37° C., treatment time 30 min
  Infection ability of λ-phage by adding 9 M urea: 0 pfu/mL
[3]; 9 M urea, 37° C., treatment time 60 min
  Infection ability of λ-phage: 0 pfu/ml
[3]; 9 M urea, 37° C., treatment time 60 min (Table 6)
  Infection ability of λ-phage by adding 9 M urea: 0 pfu/mL
[3]; 9 M urea, treatment time of 15 minutes or more
  inactivation of λ-phage (in words): completely inactivated
[3]; [8]
  Infection ability of λ-phage: 0 pfu/mL
  inactivation of λ-phage (in words): inactivated
[3]; immediately after contacting 9 M urea
  inactivation ratio of λ-phage: about 99.96%

## Cl [acid, hydrochloric acid]
[1]; 2.5 M hydrochloric acid, 60° C., 60 minutes
  mite allergen inactivation (DaniScan band): most of the allergen is inactivated
[4]; Cj-1 solution
  denaturation of Cj-1 protein (Western band): most of the cedar antigen Cj-1 protein was denatured
[4]; cedar extract
  denaturation of Cj-1 protein (Western band): most of the cedar antigen Cj-1 protein was denatured
[5]
  denaturation of Cj-1 protein (bands): most of the cedar allergen Cj-1 protein was denatured
[6]; 10 μL 5 N HCL per 10 μL cedar preparation, 60° C., 60 minutes
  denaturation of cedar proteins (bands): most of the proteins derived from cedar was denatured
[7]
  denaturation of Cj-2 protein (bands): most of the cedar allergen Cj-2 protein was denatured

B1: papain: purified edible papain manufactured by Nagase Chemtechs Co. (protein, UniProt P00784 134-345, looked up)
Papain: IPEYVDWRQKGAVTPVKNQGSCGSCWAFSAVVTIEGIIKIRTGNLNEYSEQELLDCDRRSYGCNGGYPWSALQLVAQYGIHYRNTYPYEGVQRYCRSREKGPYAAKTDGVRQVQPYNEGALLYSIANQPVSVVLEAAGKDFQLYRGGIFVGPCGNKVDHAVAAVGYGPNYILIKNSWGTGWGENGYIRIKRGTGNSYGVCGLYTSSFYPVKN
[4]; cedar extract, 3 μL (0.2 g/mL) papain, 40° C., 15 minutes
  inactivation of Cj-1 allergen (Western band): completely inactivated
[6]; 3 μL (0.2 g/mL) papain solution, 40° C., 15 minutes
  decomposition of cedar proteins (bands): most of the cedar proteins had been decomposed

Reference: patent US20050042716A1, “Allergen inactivating method, allergen inactivating filter, air treating apparatus, virus inactivating agent, virus inactivating method, virus inactivating filter, air conditoning unit and air conditioner” (priority 2003, published 2005)
